Test results from patent US20120122832A1, “METHOD OF MAKING CEFQUINOME PARTICLES” (priority 2009, published 2012).
Structures can show the parent of a compound that is named as a salt.

Tests used:
[1] = Particle size distribution (PSD) of precipitated cefquinome sulfate particles by laser light scattering; format: physicochemical
[2] = Particle size distribution of ethyl oleate formulations, Malvern Master Sizer with Hydro 2000G cell, Frauenhofer method; format: physicochemical; conditions: Table 1, Malvern Master Sizer
Description: The particle size was determined with a Malvern Master Sizer GMAL 01 with the Hydro 2000G measuring cell according to Frauenhofer method.

[3] = 1 minute stirring only in the measurement equipment
[4] = 10 minutes stirring + 6 minutes of ultrasound
[5] = 10 minutes stirring only in the measurement equipment

## CO/N=C(\C(=O)N[C@@H]1C(=O)N2C(C(=O)[O-])=C(C[n+]3cccc4c3CCCC4)CS[C@H]12)c1csc(N)n1 [Example 8, Cefquinome sulfate]
[1]; [3]
  PSD D(50): 4.78 μm
  PSD D(100): 239.9 μm
  PSD DE(90): 66.97 μm
[1]; [4]
  PSD D(50): 0.15 μm
  PSD D(100): 5.01 μm
  PSD DE(90): 1.98 μm
[1]; [5]
  PSD D(50): 3.34 μm
  PSD D(100): 11.48 μm
  PSD DE(90): 5.95 μm

## CO/N=C(\C(=O)N[C@@H]1C(=O)N2C(C(=O)[O-])=C(C[n+]3cccc4c3CCCC4)CS[C@H]12)c1csc(N)n1 [prior art non micronized material, cefquinome sulphate]
[2]
  D(0.50): 63.01 μm
  D(0.90): 114.75 μm
  D(100): 178.25 μm
